This note sets out measurements from patent US20090143421A1, “USE OF 2-BENZOYL-IMIDAZOPYRIDINES IN THERAPEUTICS” (SANOFI-AVENTIS, priority 2006, published 2009).

Where a name gives a salt, the structure may show the parent alone.

For one test, the system named is human NOT receptor. Briefly: binding to the human NOT receptor by SPR (BIACORE S51). As to conditions: immobilized GST-NOT whole protein and NOT ligand-binding domain, 3.75 to 0.1 μM, 4° C. As to the method: Evaluation of the Binding to the Human NOT Receptor
The direct binding between compounds of the invention and the human NOT receptor was evaluated using SPR (surface plasmon resonance) technology. In this assay, the protein is immobilized covalently to the matrix and the molecule to be studied is injected into the chamber containing the sensor chip. The signal is directly proportional to the amount of product bound to the protein. The binding assays were carried out in a BIACORE S51 instrument (Biacore Inc., Piscataway N.J.). The GST-NOT (NOT-FL) whole protein was provided by Invitrogen (PV3265). The NOT ligand-binding domain (His-Thr-NOT 329-598) was expressed and purified as described in Nature 423, 555-560. The two proteins, diluted to a concentration of 20 μg/ml in an acetate buffer, pH 5.0, containing 5 mM of DTT, were immobilized on a carboxymethyl 5′ dextran surface (CM5 sensor chip, Biacore Inc.) by amine coupling according to the protocol recommended by Biacore, elution being carried with an HBS-N buffer (10 mM HEPES, 0.15 M NaCl, 3 mM EDTA, pH 7.4). Approximately 10000-15000 resonance units (RU) of the proteins are captured on the surface of the CM5 sensor chip. […] The dissociation was recorded for 5 minutes without any other procedure for regenerating the surface. […]

Another test deals with T1, mouse Nurrl receptor (Mus musculus, UniProt Q06219).
T1 construct: a cell line (N2A) endogenously expressing the mouse Nurrl receptor; host or cells: Neuro-2A (N2A) mouse neuroblastoma cells stably transfected with 8NBRE-luciferase
T1 sequence (Q06219 whole entry): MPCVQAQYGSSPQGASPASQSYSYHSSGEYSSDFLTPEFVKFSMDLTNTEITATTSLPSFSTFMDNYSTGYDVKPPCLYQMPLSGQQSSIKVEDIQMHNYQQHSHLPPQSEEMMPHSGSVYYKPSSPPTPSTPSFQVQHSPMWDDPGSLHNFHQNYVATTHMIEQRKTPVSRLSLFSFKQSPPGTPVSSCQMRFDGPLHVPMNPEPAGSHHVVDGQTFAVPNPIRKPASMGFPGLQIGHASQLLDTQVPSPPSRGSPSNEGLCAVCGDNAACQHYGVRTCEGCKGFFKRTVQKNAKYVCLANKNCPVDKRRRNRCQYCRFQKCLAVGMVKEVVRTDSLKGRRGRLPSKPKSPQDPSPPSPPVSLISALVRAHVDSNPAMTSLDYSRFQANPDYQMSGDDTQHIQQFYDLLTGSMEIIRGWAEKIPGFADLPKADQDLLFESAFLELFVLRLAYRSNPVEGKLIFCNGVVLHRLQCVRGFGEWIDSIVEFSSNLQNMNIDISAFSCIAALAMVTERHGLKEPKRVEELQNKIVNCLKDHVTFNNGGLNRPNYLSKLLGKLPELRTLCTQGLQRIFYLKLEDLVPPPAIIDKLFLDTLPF
Briefly: in vitro activity on N2A cells (NBRE-luciferase reporter). It is filed as cell-based. The following applies: N2A-8NBRE-luciferase cells, 24 hours incubation with the products. As to the method: Evaluation of the in vitro Activity on N2A Cells
Assays consisted in measuring the in vitro activity of the compounds of the invention on a cell line (N2A) endogenously expressing the mouse Nurrl receptor and stably transfected with the NOT binding response element (NBRE) coupled to the luciferase reporter gene. The EC50 values are between 0.01 and 1000 nM. The assays were carried out according to the procedure described below.
The Neuro-2A cell line comes from a standard commercial source (ATCC) . The Neuro-2A clone was obtained from a spontaneous tumor originating from an A albino mouse strain, by R. J Klebe et al. This Neuro-2A line is subsequently stably transfected with 8NBRE-luciferase. The N2A-8NBRE cells are cultured until confluence in 75 cm^2 culture flasks containing DMEM supplemented with 10% of fetal calf serum, 4.5 g/l of glucose and 0.4 mg/ml of geneticin. After a week of culture, the cells are recovered with 0.25% trypsin for 30 seconds and then resuspended in DMEM without phenol red, containing 4.5 g/l of glucose and 10% of Hyclone delipidized serum, and deposited into transparent-bottom 96-well white plates. The cells are deposited at a rate of 60 000 per well in 75 μl for 24 hours before the addition of the products. […] The plates are subsequently measured in a luminescence counter for microplates after having been sealed with an adhesive film. […]
Background: In a reporter assay the amount or activity of a reporter protein is the signal.

As for `O=C(c1ccccc1)c1cn2cc(Cl)ccc2n1` [Compound 3, (6-Chloroimidazo[1,2-a]Pyridin-2-yl)-(Phenyl)Methanone Hydrobromide (1:1)], in the test on human NOT receptor, the “affinity (classified by maximum binding level and kinetic parameters)” value was “high affinity”.
One may read the EC50 as the concentration needed to bring the measured effect to its halfway point. Read a high EC50 as weaker potency. At mouse Nurrl receptor, `O=C(c1ccccc1)c1cn2ccccc2n1` [Compound 7, (imidazo[1,2-a]pyridin-2-yl)(phenyl)methanone] registered an EC50 of 31 nM. In other words, the double-digit nanomolar range.
In the case of `Cc1ccn2cc(C(=O)c3ccccc3)nc2c1` [Compound 6, (7-methylimidazo[1,2-a]pyridin-2-yl)(phenyl)methanone], the “affinity (classified by maximum binding level and kinetic parameters)” value in the test with human NOT receptor is listed as “medium affinity”. Moreover, on mouse Nurrl receptor, it took 1.2 nM to reach a half-maximal effect (EC50).
